Data on 7 molecules can be found in patent publication US20260345803A1, “An Integrin Alpha10 Antibody Drug Conjugate” (Targinta AB, priority 2022, published 2026).

For one assay, the system named is C2C12alpha10. Kind of assay: In vitro cytotoxicity (WST-1), C2C12alpha10. Format: cell-based, mouse. To be noted: monolayer, 5 days. On the procedure: (§1) • Aim: To evaluate the in vitro efficacy of Th-Ab12-ADC in different cell lines. Material and Methods: Cells were seeded either as monolayer (C2C12alpha10, C2C12alpha11 and A204) or as spheres (BT549, Hs578T, U3046MG, U3054MG and SJSA-1) and treated with the IgG1 isotype control Ctrl-ADC or Th-Ab12-ADC at different concentrations ([…]) for 5 days (C2C12alpha10, C2C12alpha11, A204 and SJSA-1) or 10 days (BT549, Hs578T, U3046MG and U3054MG). On the day of termination, the cells were incubated for 3-4 hours with WST-1, which measures the viable cells, and the plates were read at OD450 nm wavelength via SpectraMax. The dose response curves and IC50 values were generated in GraphPad Prism 9. The WST-1 assay is based on the cleavage of tetrazolium salt WST-1 for formazan by cellular mitochondrial dehydrogenases. […] The differences in IC50 values between control ADC and Th-Ab12-ADC supports a relatively large therapeutic window for each cell line (Table 3).
For orientation: Tetrazolium dyes change colour on reduction, which living cells bring about.

The next assay concerns C2C12alpha11. Kind of assay: In vitro cytotoxicity (WST-1), C2C12alpha11. It is filed as cell-based, mouse. Conditions: monolayer, 5 days. As to the method:
as §1

The test system of the next assay is BT549. Kind of assay: In vitro cytotoxicity (WST-1), BT549. Format: cell-based. To be noted: spheres, 10 days. On the procedure:
as §1

The next assay deals with Hs578T. Kind of assay: In vitro cytotoxicity (WST-1), Hs578T. It is filed as cell-based. Conditions: spheres, 10 days. As to the method:
as §1

For another assay, the system named is U3046MG. Kind of assay: In vitro cytotoxicity (WST-1), U3046MG. Format: cell-based, human. Conditions: spheres, 10 days. As to the method:
as §1

The next assay has as its system U3054MG. Kind of assay: In vitro cytotoxicity (WST-1), U3054MG. It is filed as cell-based, human. Conditions: spheres, 10 days. On the procedure: as §1
The subject of a further assay is A204. Kind of assay: In vitro cytotoxicity (WST-1), A204. To be noted: monolayer, 5 days. Format: cell-based. On the procedure:
as §1

The next assay deals with SJSA-1. Kind of assay: In vitro cytotoxicity (WST-1), SJSA-1. Format: cell-based. To be noted: spheres, 5 days. On the procedure: as §1
Assay [1] deals with T1, integrin alpha11 (C2C12alpha11 cells) (human, UniProt Q9UKX5).
T1 chain: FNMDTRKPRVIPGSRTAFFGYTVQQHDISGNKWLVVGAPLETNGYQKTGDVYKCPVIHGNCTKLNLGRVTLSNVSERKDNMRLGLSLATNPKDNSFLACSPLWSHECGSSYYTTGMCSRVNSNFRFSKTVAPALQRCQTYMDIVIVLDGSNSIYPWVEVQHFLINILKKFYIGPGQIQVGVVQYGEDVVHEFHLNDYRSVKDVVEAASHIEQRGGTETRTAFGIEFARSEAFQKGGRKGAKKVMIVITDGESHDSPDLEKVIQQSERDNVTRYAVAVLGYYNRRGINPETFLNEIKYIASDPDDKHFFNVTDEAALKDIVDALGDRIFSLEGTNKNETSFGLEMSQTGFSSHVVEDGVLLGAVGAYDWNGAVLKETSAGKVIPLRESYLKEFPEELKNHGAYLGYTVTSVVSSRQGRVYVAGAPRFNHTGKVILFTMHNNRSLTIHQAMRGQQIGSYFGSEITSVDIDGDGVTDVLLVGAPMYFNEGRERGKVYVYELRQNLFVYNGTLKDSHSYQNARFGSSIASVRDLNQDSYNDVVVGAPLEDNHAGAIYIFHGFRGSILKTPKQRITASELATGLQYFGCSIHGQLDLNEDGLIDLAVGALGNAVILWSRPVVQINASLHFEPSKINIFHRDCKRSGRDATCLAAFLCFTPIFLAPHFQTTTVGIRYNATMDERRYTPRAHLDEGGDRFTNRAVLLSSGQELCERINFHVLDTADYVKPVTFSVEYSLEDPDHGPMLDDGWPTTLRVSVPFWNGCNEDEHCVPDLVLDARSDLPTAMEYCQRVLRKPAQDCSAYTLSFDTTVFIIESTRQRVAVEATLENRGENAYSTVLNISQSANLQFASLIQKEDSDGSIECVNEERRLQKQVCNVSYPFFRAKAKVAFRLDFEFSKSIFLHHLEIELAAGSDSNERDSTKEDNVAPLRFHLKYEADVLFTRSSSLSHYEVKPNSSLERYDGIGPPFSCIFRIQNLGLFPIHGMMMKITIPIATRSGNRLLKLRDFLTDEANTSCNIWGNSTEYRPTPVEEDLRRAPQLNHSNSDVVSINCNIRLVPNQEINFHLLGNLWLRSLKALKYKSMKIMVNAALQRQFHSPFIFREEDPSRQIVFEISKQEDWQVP
Kind of assay: FACS, C2C12alpha11 cells. (Flow cytometry measures light scatter and fluorescence of single cells or particles in a stream.)

In assay [2] the target is T2, integrin alpha10 (alpha10beta1, cell-expressed) (human, UniProt O75578).
T2 chain: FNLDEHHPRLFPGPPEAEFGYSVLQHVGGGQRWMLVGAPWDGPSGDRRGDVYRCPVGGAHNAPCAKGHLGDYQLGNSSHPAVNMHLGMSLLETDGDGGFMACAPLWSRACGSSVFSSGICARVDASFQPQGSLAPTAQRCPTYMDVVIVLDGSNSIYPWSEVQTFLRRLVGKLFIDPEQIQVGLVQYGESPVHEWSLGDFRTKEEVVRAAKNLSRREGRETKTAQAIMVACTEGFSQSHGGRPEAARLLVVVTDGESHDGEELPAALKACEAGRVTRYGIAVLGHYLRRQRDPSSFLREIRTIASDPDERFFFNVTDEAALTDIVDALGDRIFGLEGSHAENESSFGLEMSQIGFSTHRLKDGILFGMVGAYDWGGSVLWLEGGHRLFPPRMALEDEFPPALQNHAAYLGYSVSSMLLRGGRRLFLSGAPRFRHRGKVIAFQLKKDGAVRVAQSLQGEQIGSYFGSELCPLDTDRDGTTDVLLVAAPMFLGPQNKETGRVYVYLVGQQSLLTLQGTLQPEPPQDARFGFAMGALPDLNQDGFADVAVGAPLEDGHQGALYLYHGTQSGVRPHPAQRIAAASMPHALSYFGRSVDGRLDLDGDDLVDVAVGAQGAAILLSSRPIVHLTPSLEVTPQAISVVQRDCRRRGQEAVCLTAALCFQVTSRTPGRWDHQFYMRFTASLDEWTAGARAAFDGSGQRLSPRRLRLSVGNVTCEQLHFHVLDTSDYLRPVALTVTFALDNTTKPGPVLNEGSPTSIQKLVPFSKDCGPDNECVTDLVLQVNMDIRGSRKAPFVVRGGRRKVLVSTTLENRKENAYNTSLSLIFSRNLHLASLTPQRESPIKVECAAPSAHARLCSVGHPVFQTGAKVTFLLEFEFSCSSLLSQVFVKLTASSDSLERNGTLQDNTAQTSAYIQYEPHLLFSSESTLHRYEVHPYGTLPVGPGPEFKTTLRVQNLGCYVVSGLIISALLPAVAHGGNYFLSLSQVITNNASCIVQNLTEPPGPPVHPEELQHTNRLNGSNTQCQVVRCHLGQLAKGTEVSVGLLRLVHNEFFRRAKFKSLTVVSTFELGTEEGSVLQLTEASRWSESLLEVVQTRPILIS
Kind of assay: FACS, upper end of range 0.9-2.69 nM over seven cell lines.

Assay [3] has as its target T2, integrin alpha10 (alpha10beta1, …). Kind of assay: FACS, lower end of range 0.9-2.69 nM over seven cell lines.

Consider `COc1cccc2c1C(=O)c1c(O)c3c(c(O)c1C2=O)CC(O)(C(=O)CO)CC3OC1CC2C(OC3C(OC)OCCN23)C(C)O1` [PNU-159682, 3′-deamino-3″-4′-anhydro-[2″(S)-methoxy-3″(R)-hydroxy-4″-morpholinyl]doxorubicin], for which the concentration for half-maximal inhibition (IC50) (usually the concentration that gives 50% inhibition) in the assay on C2C12alpha10 stood at 0.027 nM; with C2C12alpha11 it was 0.018 nM; in the assay on BT549 it was 1.4 nM; in the assay on Hs578T, 0.981 nM; with U3046MG, 0.077 nM; in the assay on U3054MG, 0.145 nM. The 50% inhibitory concentration (IC50) with A204 came to 0.023 nM; in the assay on SJSA-1, 0.077 nM.

B1: Th-Ab15 (antibody, V domains shown)
VH: QVQLVQSGAEVKKPGASVKVSCKTSGYTFTEYYVIWVRQAPGQGLEWLGWIFPGSGRTYYSEKFRGRATITVDKSTSTAYMELSSLRSEDTAVYYCARDNYGSSGKFFAYWGQGTLVTVSS
VL: DVVMTQSPLSLPVTLGQPASISCRSSQSLVHSNGNTYLHWYQQKPGQPPKLLIYKVSNRFSGVPDRFSGSGSGTDFTLKISRVEAEDVGVYYCSQSTHVPYTFGQGTKLEIK
In the case of B1, in [1], the binding result was “no binding”.

B2: Th-Ab12 (antibody, V domains shown)
VH: QVQLVQSGAEVKKPGASVKVSCKTSGYTFTEYYIIWVRQAPGQGLEWLGWIFPGSGRTYYSEKFRGRVTITADKSTSTAYMELSSLRSEDTAVYYCARDNYGSSGKFFAYWGQGTLVTVSS
VL: DVVMTQSPLSLPVTLGQPASISCRSSQSLVHSNGNTYLHWYQQKPGQPPKLLIYKVSNRFSGVPDRFSGSGSGTDFTLKISRVEAEDVGVYYCSQSTHVPYTFGQGTKLEIK
Turning to B2, the binding result in assay [1] is “no binding”.

B3: Th-Ab11 (antibody, V domains shown)
VH: QVQLVQSGAEVKKPGASVKVSCKTSGYTFTEYYIIWVRQAPGQGLEWLGWIFPGSGRTYYSEKFRGRVTITADKSTSTAYMELSSLRSEDTAVYYCARDNYGSSGKFFAYWGQGTLVTVSS
VL: DVVMTQSPLSLPVTLGQPASISCRSSQSLVHSNGNTYLHWYQQKPGQPPKLLIYKVSNRFSGVPDRFSGSGSGTDFTLKISRVEAEDVGVYFCSQSTHVPYTFGQGTKLEIK
Turning to B3, the binding result in assay [1] was “no binding”.

B4: Th-Ab14 (antibody, V domains shown)
VH: QVQLVQSGAEVKKPGASVKVSCKTSGYTFTEYYVIWVRQAPGQGLEWLGWIFPGSGRTYYSEKFRGRATITVDKSTSTAYMELSSLRSEDTAVYYCARDNYGSSGKFFAYWGQGTLVTVSS
VL: DVVMTQSPLSLPVTLGQPASISCRSSQSLVHSNGNTYLHWYQQKPGQPPKLLIYKVSNRFSGVPDRFSGSGSGTDFTLKISRVEAEDVGVYFCSQSTHVPYTFGQGTKLEIK
Turning to B4, in assay [1], the binding result is given as “no binding”.

B5: Th-Ab12-ADC (antibody, V domains shown)
VH: QVQLVQSGAEVKKPGASVKVSCKTSGYTFTEYYIIWVRQAPGQGLEWLGWIFPGSGRTYYSEKFRGRVTITADKSTSTAYMELSSLRSEDTAVYYCARDNYGSSGKFFAYWGQGTLVTVSS
VL: DVVMTQSPLSLPVTLGQPASISCRSSQSLVHSNGNTYLHWYQQKPGQPPKLLIYKVSNRFSGVPDRFSGSGSGTDFTLKISRVEAEDVGVYYCSQSTHVPYTFGQGTKLEIK
modifications: ADC, conjugated to PNU-159682-type payload; constant regions SEQ21 (heavy) and SEQ20 (light)
With B5, the binding result in assay [1] is reported as “no binding”. Further, the results for the EC50 in assay [2] and in [3] were < 2.69 nM and > 0.9 nM, respectively.

B6: Th-Ab9 (antibody, V domains shown)
VH: QVQLVQSGAEVKKPGASVKVSCKTSGYTFTEYYIIWVRQAPGQGLEWLGWIFPGSGRTYYSEKFRGRATITVDKSTSTAYMELSSLRSEDTAVYYCARDNYGSSGKFFAYWGQGTLVTVSS
VL: DVVMTQSPLSLPVTLGQPASISCRSSQSLVHSNGNTYLHWYQQKPGQPPKLLIYKVSNRFSGVPDRFSGSGSGTDFTLKISRVEAEDVGVYYCSQSTHVPYTFGQGTKLEIK
Consider B6, for which the binding result in [1] was “no binding”.
